Data taken from patent publication US20230312652A1, “NOVEL PEPTIDES AND USES THEREOF” (Aarhus Universitet, priority 2020, published 2023).
Where a SMILES comes first, the peptide text is derived from it.

Experiments:
[1] = test system: HTT in GM04719 fibroblasts; assay: Huntingtin levels in Huntington's patient-derived fibroblasts (GM04719), western blotting; type: cell-based, human
Description: GM04719 was seeded at 30,000-50,000 per well in a 96-well. The following day, the cells were treated with 1 uM of P1 and incubated at 37° C. and 5% CO2 at timepoints 0-24 hours. Hereafter, the cells were lysed in RIPA lysis buffer containing cOmplete cocktail protease inhibitor. Total Huntingtin levels were analysed using antibody mab2166 (Sigma-Aldrich) by western blotting and normalized to beta-actin. To determine, whether P1 also clears the healthy allele, we further assessed levels of total HTT in fibroblast derived from a healthy individual (GM01650E), bought from Coriell Biobank.
To get a direct measurement and further validation of the selective degradation of the disease-allele another study was carried out in GM04719 fibroblasts. Here, at 30,000-50,000 were seeded per well in a 96-well. The following 3 days, the cells were treated with 1 uM of P1 every 24 hour and during this incubated at 37° C. and 5% CO2. 24 hours after third treatment, the cells were lysed in RIPA lysis buffer containing cOmplete cocktail protease inhibitor. Mutated Huntingtin levels were measured using antibody, which only detects the disease-allele (MW1 ab). Total Huntingtin levels were likewise analysed using antibody mab2166 and both were normalized to beta-actin.

[2] = Mouse brain homogenate binding; type: in vitro ADME; conditions: 2 μM
Description: (§1) Mouse brain homogenate was incubated with 2 μM of P1 or 7-Ethoxycoumarin (positive control of degradation). Enzymatic reactions were stopped at timepoints between 0-240 min and samples analysed by LCMS. For test with protease inhibitors, brain homogenate was pre-incubated for 30 minutes with protease inhibitors prior to incubation with P1. For brain homogenate binding, 2 μM of P1 or propranolol (positive control) were added to mouse brain homogenate and incubated at 37° C. for 30 minutes. To prepare the protein-free samples (F samples) to be used for unbound determination, an aliquot of the pre-incubated matrix containing test compound or control compound was transferred to ultracentrifuge tubes and subjected to ultracentrifugation at 37° C., 35000 rpm for 4 hrs. In parallel, brain homogenate was incubated for 4.5 hrs to determine total levels after incubation.

[3] = Liver microsome stability, human; type: in vitro ADME; conditions: 2 μM, up to 60 minutes
Description: Reactions were stopped at timepoints between 0-60 min. and samples analysed by LCMS.

[4] = Plasma binding, human plasma, ultracentrifugation; type: in vitro ADME
Description: For plasma binding, 2 μM P1 or Warfarin (positive control) were added to mouse or human plasma. After 30 minutes incubation at 37° C., samples where ultracentrifuged for 4 hours to generate protein-free samples for LCMS analysis. In parallel, plasma was incubated for 4.5 h to determine total levels after incubation. Plasma binding was calculated as % Bound=100*(1−F/T4.5), where F is concentration of free ligand and T4.5 is the concentration of total ligand after incubation.

[5] = 2 μM, up to 60 minutes
Description: S9 fractions from 5 different species were incubated with 2 μM P1 (SEQ ID NO: 1) or 7-Ethoxycoumarin (positive control for clearance) and necessary reactants for up to 60 minutes at 37° C. Reactions were stopped and samples were analysed by LCMS.

[6] = Mouse brain homogenate stability; type: in vitro ADME; conditions: 2 μM, read-out: T½ in brain homogenate
Description: as §1

CREB = CREB activation in GRN+/- cortical neurons, western blotting; type: cell-based, mouse; conditions: 1 uM, 20 minutes
Description: In this study, it was examined whether peptide P1 could increase phosphorylation of CREB (ser133) similar to wild-type neurons. To study the activation of CREB, cortical neurons were isolated from GRN+/−p0 […] mice and seeded in a density of 500,000 per well. After 7 days in vitro the neurons were stimulated with peptide P1 at 1 uM in neurobasal A media at 37° C. and 5% CO2 and incubated for 20 minutes. Following, the neurons were lysed in lysis buffer containing DTT and cOmplete cocktail protease inhibitor and subsequently sonicated to disrupt the nuclear membrane. The phosphorylation of CREB on serine 133 was subsequently validated by western blotting. The levels of phosphorylated CREB were normalized to the corresponding beta-actin levels. Student's t-test was used for statistical analysis.

## CSCC[C@@H]1NC(=O)[C@H](C(C)C)NC(=O)[C@H](CC(=O)O)NC(=O)[C@H](CCC(=O)O)NC(=O)[C@H](CCC(=O)O)NC(=O)[C@H](Cc2c[nH]cn2)NC(=O)[C@H](CCC(=O)O)NC(=O)[C@H](C(C)C)NC(=O)[C@@H]2CCCN2C(=O)[C@H](CCC(=O)O)NC(=O)[C@H]([C@@H](C)O)NC1=O [Peptide P1, [MTEPVEHEEDV]] (cyclo(MTEPVEHEEDV))
[1]; 1 uM every 24 hour for 3 days
  reduction of mutated Huntingtin (disease-allele, MW1 antibody): 20%
  total Huntingtin (mab2166): not lowering the total amount of Huntingtin significantly
[1]; 1 uM, 8 hours of stimulation
  total HTT levels: reduces total HTT levels
[2]
  brain homogenate binding: less than 20%
[3]
  clearance and stability in liver microsomes: low clearance and high stability
[4]; 2 μM
  plasma binding: 20%
[4]; read-out: compound unbound in plasma
  fraction unbound at 30 min, 2 μM: > 0.75
[5]; 5 different species
  clearance and stability in liver S9 fractions: low clearance and high stability
[5]; mouse and human
  stability in mouse and human S9 liver fractions: some stability is lost
[6]
  half-life: 4.08 h
CREB
  phosphorylation of CREB (S133): able to activate CREB
